Consider 10 molecules from PubChem BioAssay (NCI).

Test systems include A498 renal; A549 NSCLC; CAKI-1 renal; HL-60(TB) leukemia; HOP-62 NSCLC; M14 melanoma; MALME-3M melanoma; NCI-H460 lung; PC-3 prostate; SF-268 CNS.
Common to all, as to assay: inhibition of tumour cell growth, NCI panel, 48 h

Where “and” joins values, the source holds several entries; their conditions need not be identical. Equal values may be shown once.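 Assay format: 96-well plates, 48-hour exposure. GI50: concentration for 50% inhibition of growth. TGI: total growth inhibition.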 Bounds are passed on as bounds.

Take `CNC(=O)c1c(NC(=O)c2ccc(C(C)C)cc2)sc2c1CCC(=O)C2`: the GI50 in the assay on A498 renal was 0.715 µM; in the assay with A549 NSCLC it was 0.401 µM; in the assay on CAKI-1 renal, 0.31 µM; with HL-60(TB) leukemia it was 0.303 µM; in the assay on HOP-62 NSCLC, 3.41 µM; in the assay on M14 melanoma, 0.454 µM. For the same molecule, the GI50 was 0.891 µM in the assay on MALME-3M melanoma, 0.58 µM in the assay with NCI-H460 lung, 0.152 µM in the assay with PC-3 prostate and 0.443 µM in the assay on SF-268 CNS. The TGI in the assay with A498 renal worked out at 3.78 µM; with A549 NSCLC, 5.45 µM; in the assay with CAKI-1 renal it was 1.5 µM; with HL-60(TB) leukemia, 2.15 µM; in the assay with HOP-62 NSCLC it was 18.4 µM; in the assay with M14 melanoma, 2.03 µM. In addition, the TGI in the assay with MALME-3M melanoma amounted to 2.94 µM; in the assay with NCI-H460 lung it was 2.82 µM; in the assay with PC-3 prostate, 1.32 µM; in the assay with SF-268 CNS it was 2.41 µM.
For `O=C(c1ccncc1)N1CCN(C2=NS(=O)(=O)c3ccccc3N2c2ccccc2)CC1`, the GI50 in the assay with A498 renal is 19.7 µM; in the assay on A549 NSCLC, 20.6 µM; in the assay with CAKI-1 renal it was 30.3 µM; with HL-60(TB) leukemia, 17.1 µM; with HOP-62 NSCLC, 8.06 µM; in the assay with M14 melanoma, 13.3 µM. The GI50 was 23.6 µM in the assay on MALME-3M melanoma, 2.59 µM in the assay on NCI-H460 lung, 22.2 µM with PC-3 prostate and 8.37 µM with SF-268 CNS. In addition, the TGI in the assay on A498 renal was 36.9 µM; with A549 NSCLC, greater than 100 µM; in the assay with CAKI-1 renal, 88.5 µM; in the assay with HL-60(TB) leukemia it was greater than 100 µM; in the assay on HOP-62 NSCLC, 32.3 µM; in the assay with M14 melanoma, greater than 100 µM. Besides, the TGI was 51.8 µM in the assay with MALME-3M melanoma, greater than 100 µM in the assay with NCI-H460 lung, greater than 100 µM in the assay on PC-3 prostate and greater than 100 µM in the assay with SF-268 CNS.
As for `COc1cccc2cc(-c3nc(C4CCC(C(=O)O)CC4)n4ncnc(N)c34)[nH]c12` (stereo not given), the GI50 with A498 renal was 0.0677 µM and 0.0601 µM; in the assay on A549 NSCLC, 1.21 µM and 1.97 µM; with CAKI-1 renal, 0.33 µM and 0.326 µM; in the assay with HL-60(TB) leukemia, 3.13 µM and > 3.55 µM; with HOP-62 NSCLC, 0.305 µM and 0.338 µM; with M14 melanoma, 0.219 µM and 0.36 µM. For the same molecule, the GI50 in the assay with MALME-3M melanoma was 0.0296 µM and 0.0752 µM; in the assay on NCI-H460 lung it was 0.253 µM and 0.445 µM; with PC-3 prostate, 0.129 µM and 0.342 µM; in the assay with SF-268 CNS it was 0.294 µM and 0.301 µM. The TGI in the assay on A498 renal is 0.407 µM and 0.365 µM; with A549 NSCLC, 11.8 µM and > 10 µM; with CAKI-1 renal it was 2.79 µM and 3.99 µM; with HL-60(TB) leukemia it was 25.7 µM and > 10 µM; with HOP-62 NSCLC, 3.64 µM and 4.83 µM; with M14 melanoma, 3.76 µM and > 7.22 µM. Further, the TGI was 0.354 µM and 0.675 µM in the assay with MALME-3M melanoma; 17.7 µM and > 10 µM with NCI-H460 lung; 2.03 µM and 4.42 µM in the assay with PC-3 prostate; 19.5 µM and > 10 µM in the assay on SF-268 CNS.
As to `O=C(Nc1ccc(O)c(NS(=O)(=O)c2ccc(F)cc2)c1)c1ccc(-c2ccccc2)cc1`, the GI50 is 13.4 µM in the assay with A498 renal; 4.81 µM with A549 NSCLC; 5.65 µM in the assay on CAKI-1 renal; 1.4 µM in the assay with HL-60(TB) leukemia; 19.9 µM with HOP-62 NSCLC; 7.32 µM in the assay on M14 melanoma. The GI50 was 11.5 µM with MALME-3M melanoma, 3.85 µM in the assay with NCI-H460 lung, 3.84 µM in the assay on PC-3 prostate and 6.49 µM in the assay on SF-268 CNS. Also, the TGI stood at 26.7 µM in the assay on A498 renal; 29.9 µM in the assay on A549 NSCLC; 32.6 µM in the assay on CAKI-1 renal; 5.34 µM in the assay with HL-60(TB) leukemia; 40.2 µM with HOP-62 NSCLC; 21.6 µM in the assay on M14 melanoma. Moreover, the TGI turned out to be 23.9 µM in the assay on MALME-3M melanoma, 15.9 µM with NCI-H460 lung, 16.7 µM in the assay with PC-3 prostate and 33.2 µM in the assay with SF-268 CNS.
For `O=C(OC(CNc1c(C(=O)c2ccccc2)c(=O)n(Cc2ccccc2)c(=O)n1Cc1ccccc1)CN1CCCCC1)c1ccccc1` (stereo not given), the GI50 in the assay with A498 renal is 32.3 µM; in the assay with A549 NSCLC it was 50.3 µM; in the assay with CAKI-1 renal it was 18.3 µM; in the assay with HL-60(TB) leukemia, 14.8 µM; with HOP-62 NSCLC, 18 µM; in the assay with M14 melanoma, 16.3 µM. In addition, the GI50 with MALME-3M melanoma is 18.5 µM; in the assay with NCI-H460 lung, 21.1 µM; in the assay with PC-3 prostate, 13.1 µM; in the assay on SF-268 CNS, 24.1 µM. In addition, the TGI in the assay with A498 renal was 76.5 µM; with A549 NSCLC, greater than 100 µM; in the assay on CAKI-1 renal, 35.5 µM; with HL-60(TB) leukemia, 33.8 µM; in the assay with HOP-62 NSCLC, 33.6 µM; in the assay with M14 melanoma it was 31.1 µM. The TGI with MALME-3M melanoma came to 40.7 µM; in the assay on NCI-H460 lung, 46.7 µM; in the assay with PC-3 prostate, 26.4 µM; in the assay on SF-268 CNS, 53.2 µM.
For the molecule `NCC(=O)NC(CO)C(=O)O` (stereo not given), the TGI with A498 renal, in the assay on A549 NSCLC, in the assay on CAKI-1 renal, with HL-60(TB) leukemia, in the assay with HOP-62 NSCLC and with M14 melanoma was greater than 100 µM each time. The TGI in the assay with MALME-3M melanoma, with NCI-H460 lung, in the assay on PC-3 prostate and with SF-268 CNS was greater than 100 µM throughout.
Regarding `O=C(NCc1cccs1)OC1CC2CCC1C2` (stereo not given), the TGI with A498 renal, with A549 NSCLC, in the assay with CAKI-1 renal, in the assay with HL-60(TB) leukemia, with HOP-62 NSCLC and in the assay on M14 melanoma was greater than 100 µM in each case. For the same molecule, the TGI with MALME-3M melanoma, in the assay with NCI-H460 lung, in the assay with PC-3 prostate and in the assay with SF-268 CNS was greater than 100 µM throughout.
`C=C(CN(C)C)C(=O)c1ccc(OC)cc1`: the TGI worked out at 25.6 µM in the assay on A498 renal; 42.8 µM in the assay with A549 NSCLC; 5.18 µM with CAKI-1 renal; 0.631 µM in the assay on HL-60(TB) leukemia; 51.9 µM in the assay with HOP-62 NSCLC; 5.66 µM with M14 melanoma. Besides, the TGI came to 3.5 µM in the assay on MALME-3M melanoma, 44.6 µM in the assay on NCI-H460 lung, 28.5 µM in the assay with PC-3 prostate and 50.5 µM in the assay on SF-268 CNS.
`COCO[C@@H]1CC2C=Nc3cc(OCc4ccccc4)c(OC)cc3C(=O)N2C1` (stereo not given in full): the GI50 is 0.976 µM in the assay with A498 renal; 0.468 µM with A549 NSCLC; 0.209 µM in the assay with CAKI-1 renal; 0.486 µM in the assay with HL-60(TB) leukemia; 0.351 µM with HOP-62 NSCLC; 0.42 µM with M14 melanoma. For the same molecule, the GI50 in the assay on MALME-3M melanoma is 0.37 µM; with NCI-H460 lung, 0.36 µM; in the assay with PC-3 prostate it was 1.09 µM; in the assay on SF-268 CNS, 0.646 µM. For the same molecule, the TGI with A498 renal was 3.25 µM; in the assay on A549 NSCLC it was 9.15 µM; in the assay on CAKI-1 renal, 0.513 µM; in the assay on HL-60(TB) leukemia, greater than 100 µM; in the assay with HOP-62 NSCLC it was 2.8 µM; with M14 melanoma, 1.39 µM. The TGI was 2.79 µM with MALME-3M melanoma, 14.3 µM in the assay on NCI-H460 lung, 36.9 µM in the assay on PC-3 prostate and 9.31 µM with SF-268 CNS.
For `CCNC(=O)c1ccc2c(c1)nc(-c1ccc(Cl)cc1)n2-c1cc(C(C)(C)C)[nH]n1`, the GI50 in the assay with A498 renal is 2.24 µM; in the assay with A549 NSCLC it was 3.19 µM; with CAKI-1 renal it was 2.84 µM; in the assay on HL-60(TB) leukemia it was 2.72 µM; with HOP-62 NSCLC it was 5.41 µM; in the assay with M14 melanoma it was 2.97 µM. Also, the GI50 was 3.47 µM in the assay on MALME-3M melanoma, 3.53 µM in the assay on NCI-H460 lung, 2.87 µM in the assay on PC-3 prostate and 3.42 µM with SF-268 CNS. Besides, the TGI is 6.53 µM with A498 renal; 31.9 µM in the assay on A549 NSCLC; 46.6 µM with CAKI-1 renal; 7.6 µM with HL-60(TB) leukemia; 36.2 µM in the assay with HOP-62 NSCLC; 10.8 µM in the assay on M14 melanoma. The TGI with MALME-3M melanoma is 17.2 µM; in the assay with NCI-H460 lung, 12.5 µM; in the assay with PC-3 prostate it was 48.8 µM; in the assay with SF-268 CNS, 15.4 µM.
